Assay in all cases: growth of human tumour cells (NCI), 48 h
Assay [1] relates to A498.
Assay [2] has as its system COLO 205.
Assay [3] deals with DU-145.
Assay [4] relates to IGROV-1.
Assay [5] deals with LOX IMVI.
Assay [6] deals with MCF7.
The test system of assay [7] is MDA-MB-231.
Assay [8] concerns MDA-N.
In assay [9] the test system is MOLT-4.
Assay [10] has as its system OVCAR-5.
In assay [11] the test system is OVCAR-8.
Assay [12] relates to SF-295.
For assay [13], the system named is SK-MEL-28.
In assay [14] the test system is SNB-19.
The subject of assay [15] is SNB-75.
Assay [16] deals with SW-620.
For assay [17], the system named is T47D.
The subject of assay [18] is TK-10.
Assay [19] relates to UACC-257.
Assay [20] concerns RPMI-8226.

SMILES strings stand for the structures.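 These data come from cells grown in 96-well plates and exposed to compound for 48 hours at five concentrations. GI50 = concentration required for 50% inhibition of growth.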 Active and inactive are the calls of the source. Cut-off read from the data, not from the text of the source: active = GI50 up to about 1.1 µM and inactive = higher.

Take `CCOC(=O)C1C(=O)CC(C)(O)C(C(=O)OCC)C1c1ccc(O)c(OC)c1` (stereo unspecified): the GI50 in [1], in [2], in [3], in assay [4], in [5] and in [6] was > 100 µM (inactive) throughout. Moreover, the GI50 in assay [7], in assay [8], in [9], in assay [10], in assay [11] and in [12] was > 100 µM (inactive) each time. Also, the GI50 in assay [13], in [14], in [15], in assay [16], in assay [17] and in assay [18] was > 100 µM (inactive) in each case. The GI50 in assay [19] was > 100 µM (inactive).
Take `COc1ccc2c(c1)CC[C@@H]1C2CC[C@]2(C)OC(=O)CCC12` (stereo partly specified): the GI50 was 38.6 µM (inactive) in assay [1]; 40.3 µM (inactive) in assay [2]; 43.6 µM (inactive) in assay [3]; 23.6 µM (inactive) in [4]; 6.67 µM (inactive) in assay [5]; 15 µM (inactive) in assay [6]. The GI50 was 2.45 µM (inactive) in assay [7]; 20.3 µM (inactive) in [8]; > 100 µM (inactive) in assay [9]; 13.3 µM (inactive) in [10]; 14 µM (inactive) in assay [11]; 5.77 µM (inactive) in [20]. In addition, the GI50 in assay [12] is 18.3 µM (inactive); in assay [13], 16.8 µM (inactive); in [14], 17.4 µM (inactive); in [16], 10.7 µM (inactive); in [17], 34.6 µM (inactive); in assay [18], 34.2 µM (inactive). In addition, the GI50 in assay [19] was 12.8 µM (inactive).
Turning to `CCc1n[nH]c(=O)n1/N=C/c1ccc(C)cc1`, the GI50 was 79.6 µM (inactive) in assay [1]; > 100 µM (inactive) in assay [2]; 65.2 µM (inactive) in assay [3]; 91 µM (inactive) in assay [4]; 69.8 µM (inactive) in assay [5]; > 100 µM (inactive) in assay [6]. The GI50 was > 100 µM (inactive) in assay [7]; > 100 µM (inactive) in [8]; 5.2 µM (inactive) in [9]; > 100 µM (inactive) in [10]; > 100 µM (inactive) in assay [11]; 72.1 µM (inactive) in assay [20]. Further, the GI50 is > 100 µM (inactive) in assay [12]; > 100 µM (inactive) in assay [13]; > 100 µM (inactive) in assay [14]; > 100 µM (inactive) in assay [16]; > 100 µM (inactive) in assay [17]; 60.3 µM (inactive) in [18]. The GI50 in [19] was 97.7 µM (inactive).
`Cc1cc2c(cc1C)C(=O)/C(=N/Nc1ccc(F)cc1)CCO2`: the GI50 in assay [1] was > 100 µM (inactive); in [2], > 100 µM (inactive); in [3], > 100 µM (inactive); in assay [4] it was > 100 µM (inactive); in assay [5], 65.8 µM (inactive); in assay [6], > 100 µM (inactive). In addition, the GI50 in [7], in assay [8], in [9], in assay [10], in assay [11] and in assay [20] was > 100 µM (inactive) throughout. The GI50 is 27.1 µM (inactive) in [12]; > 100 µM (inactive) in assay [13]; > 100 µM (inactive) in assay [14]; > 100 µM (inactive) in [16]; 5.04 µM (inactive) in assay [17]; > 100 µM (inactive) in assay [18]. For the same molecule, the GI50 in assay [19] is > 100 µM (inactive).
Consider `COC(=O)/C=C/[C@@H]1[C@H](C)N1S(=O)(=O)c1ccc(C)cc1` (stereo partly specified), for which the GI50 in assay [1] was > 100 µM (inactive); in [2] it was > 100 µM (inactive); in assay [3], > 100 µM (inactive); in assay [4], > 100 µM (inactive); in assay [5], 56.4 µM (inactive); in [6] it was > 100 µM (inactive). Further, the GI50 is 78.7 µM (inactive) in assay [7]; > 100 µM (inactive) in assay [8]; > 100 µM (inactive) in assay [9]; > 100 µM (inactive) in [10]; > 100 µM (inactive) in assay [11]; > 100 µM (inactive) in assay [20]. Also, the GI50 in [12], in assay [13], in assay [14], in assay [16], in [17] and in assay [18] was > 100 µM (inactive) each time. Also, the GI50 in assay [19] is > 100 µM (inactive).
For `N#Cc1c(-c2ccco2)c2c(n(C3OC(CO)C(O)C(O)C3O)c1=S)CCCC2` (stereo unspecified), the GI50 in assay [1], in assay [2], in assay [3], in [4], in assay [5] and in assay [6] was > 100 µM (inactive) each time. Besides, the GI50 in assay [7], in assay [8], in [9], in [10], in assay [11] and in assay [12] was > 100 µM (inactive) each time. Also, the GI50 is > 100 µM (inactive) in assay [13]; 0.0239 µM (active) in assay [15]; 85.5 µM (inactive) in assay [17]; > 100 µM (inactive) in assay [18]; > 100 µM (inactive) in [19].
For `COc1ccc(/C=N/n2c(Cc3ccc(Cl)cc3)n[nH]c2=O)cc1`, the GI50 was 39.3 µM (inactive) in [1]; 32 µM (inactive) in assay [2]; 30.3 µM (inactive) in assay [3]; 16 µM (inactive) in [4]; 77.8 µM (inactive) in assay [6]; 8.93 µM (inactive) in assay [7]. For the same molecule, the GI50 in [8] is > 100 µM (inactive); in assay [9] it was > 100 µM (inactive); in assay [10], 29.5 µM (inactive); in [11] it was 16.7 µM (inactive); in assay [20], > 100 µM (inactive); in [12], 19.8 µM (inactive). For the same molecule, the GI50 is > 100 µM (inactive) in assay [13]; 15.7 µM (inactive) in assay [14]; 16.6 µM (inactive) in assay [15]; > 100 µM (inactive) in assay [16]; 54.1 µM (inactive) in assay [17]; > 100 µM (inactive) in assay [19].
For `COc1cc(C2SCC(=O)N2c2ccc(-n3c(-c4ccccc4)nc4ccccc4c3=O)cc2)cc(OC)c1OC` (stereo unspecified), the GI50 in assay [1], in [2], in [3], in assay [4], in assay [5] and in assay [6] was > 100 µM (inactive) in each case. Also, the GI50 in assay [7] is > 100 µM (inactive); in assay [8], > 100 µM (inactive); in [9], 20.1 µM (inactive); in assay [10], > 100 µM (inactive); in assay [11], > 100 µM (inactive); in assay [20] it was > 100 µM (inactive). Moreover, the GI50 in assay [12] was > 100 µM (inactive); in [13], > 100 µM (inactive); in assay [14] it was > 100 µM (inactive); in assay [16], > 100 µM (inactive); in [17], 27.9 µM (inactive); in [18], > 100 µM (inactive). Also, the GI50 in assay [19] was > 100 µM (inactive).
On to `CCOC(=O)/C(=C/NC(=S)Nc1c(CC)cccc1C(C)(C)C)C(=O)c1ccccc1`, for which the GI50 in assay [1] is > 100 µM (inactive); in assay [2], > 100 µM (inactive); in [3] it was > 100 µM (inactive); in assay [4], > 100 µM (inactive); in [5], > 100 µM (inactive); in assay [6], 88.9 µM (inactive). Besides, the GI50 in assay [7] was > 100 µM (inactive); in assay [8] it was > 100 µM (inactive); in assay [9], > 100 µM (inactive); in [10], > 100 µM (inactive); in [11] it was > 100 µM (inactive); in assay [20] it was 88.9 µM (inactive). Moreover, the GI50 was > 100 µM (inactive) in assay [12]; > 100 µM (inactive) in assay [13]; 29.3 µM (inactive) in [15]; > 100 µM (inactive) in [16]; > 100 µM (inactive) in assay [17]; > 100 µM (inactive) in assay [19].
Take `CCc1c(C)c(C#N)c(=S)n(C2OC(CO)C(O)C(O)C2O)c1C` (stereo unspecified): the GI50 in assay [1], in [2], in assay [3], in assay [4], in assay [5] and in [6] was > 100 µM (inactive) each time. The GI50 in [7], in [8], in assay [9], in [10], in assay [11] and in assay [12] was > 100 µM (inactive) throughout. The GI50 in assay [13] was > 100 µM (inactive); in assay [14], > 100 µM (inactive); in [15], 65.2 µM (inactive); in [16], > 100 µM (inactive); in assay [17], > 100 µM (inactive); in [18], > 100 µM (inactive). Besides, in assay [19], the GI50 was > 100 µM (inactive).

(Values after ChEMBL document CHEMBL1201862, “PubChem BioAssay data set” (2004).)
